Assay results reported in patent US20230167073A1 (Teijin Pharma Limited, priority 2020, published 2023).

Target: T1, Human TRPC6 (Homo sapiens, UniProt Q9Y210)
T1 construct: expressed in transfected cells
T1 sequence (Q9Y210 1-931): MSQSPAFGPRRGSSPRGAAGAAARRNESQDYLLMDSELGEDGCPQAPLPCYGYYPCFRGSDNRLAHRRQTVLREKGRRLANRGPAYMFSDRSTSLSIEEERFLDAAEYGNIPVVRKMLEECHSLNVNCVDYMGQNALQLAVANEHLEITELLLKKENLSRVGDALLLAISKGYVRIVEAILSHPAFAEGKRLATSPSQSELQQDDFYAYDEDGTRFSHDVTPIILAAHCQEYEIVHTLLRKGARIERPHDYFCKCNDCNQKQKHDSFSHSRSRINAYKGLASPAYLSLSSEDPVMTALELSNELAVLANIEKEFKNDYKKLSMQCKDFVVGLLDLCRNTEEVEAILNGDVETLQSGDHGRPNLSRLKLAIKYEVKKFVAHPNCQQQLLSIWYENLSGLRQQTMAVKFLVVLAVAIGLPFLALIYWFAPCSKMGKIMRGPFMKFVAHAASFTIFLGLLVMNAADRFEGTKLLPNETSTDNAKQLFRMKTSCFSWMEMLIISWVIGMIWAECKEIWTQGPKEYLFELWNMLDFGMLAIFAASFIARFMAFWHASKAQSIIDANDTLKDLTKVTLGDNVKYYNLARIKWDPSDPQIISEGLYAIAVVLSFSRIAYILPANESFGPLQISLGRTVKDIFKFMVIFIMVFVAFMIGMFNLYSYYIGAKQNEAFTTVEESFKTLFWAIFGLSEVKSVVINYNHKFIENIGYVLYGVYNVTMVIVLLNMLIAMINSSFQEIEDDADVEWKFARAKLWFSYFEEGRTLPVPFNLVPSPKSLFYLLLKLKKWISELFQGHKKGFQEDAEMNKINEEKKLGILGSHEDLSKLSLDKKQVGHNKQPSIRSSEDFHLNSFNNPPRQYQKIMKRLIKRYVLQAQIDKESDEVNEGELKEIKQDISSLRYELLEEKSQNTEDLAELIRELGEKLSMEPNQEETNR
Assay: Evaluation of TRPC6 channel inhibitory activity (1), FLIPR Calcium 5 Assay Kit, OAG stimulation (Compound Nos. 1-1293)
Assay type: cell-based
Settings: Human TRPC6 stably-expressing cells, OAG 30 μM, FLIPR Calcium 5 Assay Kit; read-out: Inhibitory activity (pIC50 class) (converted)
Description: Evaluation of TRPC6 Channel Inhibitory Activity (1) (Compound Nos. 1-1293)
In order to investigate TRPC6 channel inhibitory activity of the compounds, evaluation was conducted using FLIPR® Calcium 5 Assay Kit (Molecular Devices) in accordance with the following procedure. Human TRPC6 stably-expressing cells were seeded in a 384-well black clear bottom plate at a density of 5×10^3/well and cultured in an incubator at 37° C. 5% CO2 for 24 hours. Thereafter, 25 μL of a Non Wash Dye Solution, prepared using Component A, 20 mM HEPES-HBSS and 250 mM probenecid, all of which are included in the kit, was added to each well, and the plate was incubated for 30 minutes. A volume of 12.5 μL of a compound solution was added into each well while the fluorescence was measured with FLIPR tetra. After 20 minutes, 12.5 μL of a 1-oleoyl-2-acetyl glycerol (OAG) solution was added at a final concentration of 30 μM. The difference between the minimum fluorescence intensity before the addition of the compound and the maximum fluorescence intensity after the addition of OAG was defined as a signal. An inhibition rate was calculated, assuming the average signal of wells without the compound as the inhibition rate of 0% and the average signal of wells without the compound and OAG as the inhibition rate of 100%. The calculated inhibition rate was analyzed by a four-parameter logistic regression to quantify the inhibition rate in the logarithm of the inverse of the effective concentration which gives a 50% inhibition rate (pIC50). The intensity was expressed by the following symbols (+, ++, +++).

`Cc1nc(Oc2cc(C#N)ccc2-c2ncc([C@@H](F)CN)cn2)cc(N2CCOCC2)n1` [compound 878, 4-[5-[(1R)-2-amino-1-fluoroethyl]pyrimidin-2-yl]-3-(2-methyl-6-morpholin-4-ylpyrimidin-4-yl)oxybenzonitrile] and `Cc1nc(Oc2cc(C#N)ccc2-c2ccc(C(O)CN)c(F)c2)cc(N2CCOCC2)n1` (centres unmarked) [Compound 149, 4-[4-(2-Amino-1-hydroxyethyl)-3-fluorophenyl]-3-(2-methyl-6-morpholin-4-ylpyrimidin-4-yl)oxybenzonitrile] cannot be ordered by IC50: < 10 nM for the first, < 10 nM for the second.

Compared with `Cc1cc(Oc2cc(C#N)ccc2-c2ncc([C@H](O)CN)cn2)cc(-c2ccccn2)n1` [compound 688, 4-[5-[(1S)-2-amino-1-hydroxyethyl]pyrimidin-2-yl]-3-(2-methyl-6-pyridin-2-ylpyridin-4-yl)oxybenzonitrile], `Cn1nc(-c2ncccn2)cc1Oc1cc(C#N)ccc1-c1ccc([C@H](O)CN)cn1` [compound 540, 4-[5-[(1S)-2-amino-1-hydroxyethyl]pyridin-2-yl]-3-(2-methyl-5-pyrimidin-2-ylpyrazol-3-yl)oxybenzonitrile] is higher in IC50: 10 to 1000 nM for the first, > 1000 nM for the second.

Going from `Cc1nc(C(=O)c2cc(F)ccc2-c2ncc(CN)cn2)cc(N2CCOCC2)n1` [compound 1104, [2-[5-(aminomethyl)pyrimidin-2-yl]-5-fluorophenyl]-(2-methyl-6-morpholin-4-ylpyrimidin-4-yl)methanone] to `Cc1nc(N2CCOCC2)sc1C(=O)c1cc(C#N)ccc1-c1ccc(CCN)cn1` [compound 1076, 4-[5-(2-aminoethyl)pyridin-2-yl]-3-(4-methyl-2-morpholin-4-yl-1,3-thiazole-5-carbonyl)benzonitrile], the IC50 falls from > 1000 nM to < 10 nM.

Compared with `N#Cc1ccc(-c2ccc(C(O)CN)cn2)c(Cn2cncc2-c2ccccc2)c1` (centres unmarked) [compound 1133, 4-[5-(2-amino-1-hydroxyethyl)pyridin-2-yl]-3-[(5-phenylimidazol-1-yl)methyl]benzonitrile], `Cc1nc(-c2ccccc2)cn1Cc1cc(C#N)ccc1-c1ccc(C(O)CN)cc1` (centres unmarked) [compound 1130, 4-[4-(2-amino-1-hydroxyethyl)phenyl]-3-[(2-methyl-4-phenylimidazol-1-yl)methyl]benzonitrile] is lower in IC50: > 1000 nM for the first, < 10 nM for the second.

`CCCN(C)c1cc(Oc2cc(C#N)ccc2-c2ncc(CCN)cn2)n(C)n1` [compound 770, 4-[5-(2-aminoethyl)pyrimidin-2-yl]-3-[2-methyl-5-[methyl(propyl)amino]pyrazol-3-yl]oxybenzonitrile] and `CN(C)c1cc(Oc2cc(C#N)ccc2-c2ccc(CCN)cn2)n(C)n1` [compound 543, 4-[5-(2-aminoethyl)pyridin-2-yl]-3-[5-(dimethylamino)-2-methylpyrazol-3-yl]oxybenzonitrile] cannot be ordered by IC50: < 10 nM for the first, < 10 nM for the second.

`Cc1nc(Oc2cc(C#N)ccc2-c2ccc(C(CN)c3ccc(F)cc3)cc2)cc(N2CCOCC2)n1` (centres unmarked) [Compound 60, 4-[4-[2-amino-1-(4-fluorophenyl)ethyl]phenyl]-3-(2-methyl-6-morpholin-4-ylpyrimidin-4-yl)oxybenzonitrile] and `Cc1nc(Oc2cc(C#N)ccc2-c2ccc(C(C)(O)CN)cc2)cc(N2CCOCC2)n1` (centres unmarked) [Compound 68, 4-[4-(1-amino-2-hydroxypropan-2-yl)phenyl]-3-(2-methyl-6-morpholin-4-ylpyrimidin-4-yl)oxybenzonitrile] fall in the same range of IC50: 10 to 1000 nM for the first, 10 to 1000 nM for the second.

Compared with `Cn1nc(-c2ccccn2)cc1Oc1nc(C#N)ccc1-c1ccc(CCN)cn1` [compound 1280, 5-[5-(2-aminoethyl)pyridin-2-yl]-6-(2-methyl-5-pyridin-2-ylpyrazol-3-yl)oxypyridine-2-carbonitrile], `Cc1c(Oc2cc(C#N)ccc2-c2ncc(CCN)cn2)cnn1-c1ccccn1` [compound 830, 4-[5-(2-aminoethyl)pyrimidin-2-yl]-3-(5-methyl-1-pyridin-2-ylpyrazol-4-yl)oxybenzonitrile] is higher in IC50: < 10 nM for the first, 10 to 1000 nM for the second.

`CCN(CC(F)F)c1cc(Oc2cc(F)ccc2-c2ncc(CN)cn2)n(C)n1` [compound 994, 5-[2-[5-(aminomethyl)pyrimidin-2-yl]-5-fluorophenoxy]-N-(2,2-difluoroethyl)-N-ethyl-1 methylpyrazole-3-amine] and `Cc1ncc(-c2cc(Oc3cc(C#N)ccc3-c3ncc(CN)cn3)n(C)n2)s1` [compound 962, 4-[5-(aminomethyl)pyrimidin-2-yl]-3-[2-methyl-5-(2-methyl-1,3-thiazol-5-yl)pyrazol-3-yl]oxybenzonitrile] fall in the same range of IC50: 10 to 1000 nM for the first, 10 to 1000 nM for the second.

`Cn1nc(C2CCC2)cc1Oc1cc(C#N)ccc1-c1ncc(C(O)CN)s1` (centres unmarked) [Compound 238, 4-[5-(2-amino-1-hydroxyethyl)-1,3-thiazol-2-yl]-3-(5-cyclobutyl-2-methylpyrazol-3-yl)oxybenzonitrile] and `Cn1nc(C2CC2)cc1Oc1cc(C#N)ccc1-c1ncc([C@H](O)CN)cn1` [compound 373, 4-[5-[(1S)-2-amino-1-hydroxyethyl]pyrimidin-2-yl]-3-(5 cyclopropyl-2-methylpyrazol-3-yl)oxybenzonitrile] cannot be ordered by IC50: < 10 nM for the first, < 10 nM for the second.

First: Cc1nc(NC2CC2)cc(Oc2cc(C#N)ccc2-c2ncc(CN)cn2)n1 [compound 633, 4-[5-(aminomethyl)pyrimidin-2-yl]-3-[6-(cyclopropylamino)-2-methylpyrimidin-4-yl]oxybenzonitrile]
Second: Cc1nc(Oc2cc(C#N)ccc2-c2ncc(CN)cn2)cc(O[C@@H]2CCOC2)n1 [compound 844, 4-[5-(aminomethyl)pyrimidin-2-yl]-3-[2-methyl-6-[(3R)-oxolan-3-yl]oxypyrimidin-4-yl]oxybenzonitrile]
The IC50 of the first is lower: 10 to 1000 nM for the first, > 1000 nM for the second.

Compared with `N#Cc1ccc(-c2ccc(CCN)nc2)c(Oc2cnnc(N3CCOCC3)c2)c1` [Compound 77, 4-[6-(2-aminoethyl)pyridin-3-yl]-3-(6-morpholin-4-ylpyridazin-4-yl)oxybenzonitrile], `Cc1nc(Oc2cc(C#N)ccc2-c2ncc(CCN)cn2)cc(N2CC(F)(F)C2)n1` [compound 296, 4-[5-(2-aminoethyl)pyrimidin-2-yl]-3-[6-(3,3-difluoroazetidin-1-yl)-2-methylpyrimidin-4-yl]oxybenzonitrile] is lower in IC50: > 1000 nM for the first, < 10 nM for the second.

First: Cc1nc(Oc2cc(C#N)ccc2-n2cc([C@@H](O)CNC3COC3)cn2)cc(-c2ccccc2)n1 [Compound 244, 4-[4-[(1R)-1-hydroxy-2-(oxetan-3-ylamino)ethyl]pyrazol-1-yl]-3-(2-methyl-6-phenylpyrimidin-4-yl)oxybenzonitrile]
Second: Cn1nc(-c2ccccc2)cc1Oc1cc(C#N)ccc1-c1cc2c(cn1)CNCC2 [Compound 291, 3-(2-methyl-5-phenylpyrazol-3-yl)oxy-4-(5,6,7,8-tetrahydro-2,7-naphthylidin-3-yl)benzonitrile]
The IC50 of the first is lower: 10 to 1000 nM for the first, > 1000 nM for the second.

Compared with `Cc1cc(Oc2cc(C#N)ccc2-c2ncc(CN)cn2)cc(NC(C)C)n1` [compound 644, 4-[5-(aminomethyl)pyrimidin-2-yl]-3-[2-methyl-6-(propan-2-ylamino)pyridin-4-yl]oxybenzonitrile], `Cc1nc(CN2CCCC2)cn1Cc1cc(C#N)ccc1-c1ncc(CCN)cn1` [compound 1175, 4-[5-(2-aminoethyl)pyrimidin-2-yl]-3-[[2-methyl-4-(pyrrolidin-1-ylmethyl)imidazol-1-yl]methyl]benzonitrile] is higher in IC50: < 10 nM for the first, > 1000 nM for the second.
